We go through two molecules from ChEMBL document CHEMBL1240489, “Discovery of N-{1-[3-(3-oxo-2,3-dihydrobenzo[1,4]oxazin-4-yl)propyl]piperidin-4-yl}-2-phenylacetamide (Lu AE51090): an allosteric muscarinic M1 receptor agonist with unprecedented selectivity and procognitive potential” (J Med Chem, 2010).

The structures appear in SMILES notation.

A word on the Emax: it is the size of the effect at its maximum, as opposed to the concentration needed. As a reminder, the Ki is the dissociation constant of the complex between target and ligand, obtained from inhibition or displacement. The EC50 is the concentration giving half of the maximal effect.

The target of test [1] is T1, Muscarinic acetylcholine receptor M1 (Homo sapiens) (UniProt P11229).
T1 sequence (whole entry): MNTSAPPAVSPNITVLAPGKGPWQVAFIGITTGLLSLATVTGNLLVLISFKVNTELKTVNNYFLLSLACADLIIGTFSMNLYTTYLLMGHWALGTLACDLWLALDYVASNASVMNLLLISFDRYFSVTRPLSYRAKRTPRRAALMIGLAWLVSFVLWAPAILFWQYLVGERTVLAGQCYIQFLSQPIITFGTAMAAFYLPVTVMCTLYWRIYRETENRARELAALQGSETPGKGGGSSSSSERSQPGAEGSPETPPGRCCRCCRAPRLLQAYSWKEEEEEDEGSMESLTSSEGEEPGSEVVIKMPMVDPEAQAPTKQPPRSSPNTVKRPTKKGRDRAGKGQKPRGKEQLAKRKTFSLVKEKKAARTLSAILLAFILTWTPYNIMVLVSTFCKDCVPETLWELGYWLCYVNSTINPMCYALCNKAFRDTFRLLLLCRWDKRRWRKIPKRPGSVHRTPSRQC
Nature of the test: Agonist activity at human muscarinic M1 receptor expressed in CHO-K1 cells assessed as increase of acetylcholine-induced calcium flux by FLIPR assay relative to acetylcholine. In kind it is functional, cell-based. For orientation: Calcium flux is commonly read through the fluorescence of an indicator in the cells.

For test [2], the target named is T2, Muscarinic acetylcholine receptor M4 (Homo sapiens) (UniProt P08173).
T2 sequence (whole entry): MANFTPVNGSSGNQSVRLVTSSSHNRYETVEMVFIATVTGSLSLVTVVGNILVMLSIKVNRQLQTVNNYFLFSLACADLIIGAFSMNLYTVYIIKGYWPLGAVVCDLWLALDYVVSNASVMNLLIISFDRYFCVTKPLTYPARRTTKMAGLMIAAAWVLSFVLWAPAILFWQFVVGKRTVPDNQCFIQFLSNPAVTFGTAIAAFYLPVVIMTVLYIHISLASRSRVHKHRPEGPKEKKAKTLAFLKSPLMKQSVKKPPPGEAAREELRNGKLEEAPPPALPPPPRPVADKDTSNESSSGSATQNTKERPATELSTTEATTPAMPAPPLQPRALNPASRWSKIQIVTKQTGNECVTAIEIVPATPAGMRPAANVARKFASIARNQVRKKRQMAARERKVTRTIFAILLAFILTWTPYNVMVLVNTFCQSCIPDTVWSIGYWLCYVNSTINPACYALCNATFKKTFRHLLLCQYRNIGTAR
As to the kind of experiment: Agonist activity at human muscarinic M4 receptor expressed in BHK-21 cells coexpressing Galpha16 subunit assessed as increase of acetylcholine-induced calcium flux by FLIPR assay relative to acetylcholine. In kind it is functional, cell-based.

Test [3] deals with T3, Muscarinic acetylcholine receptor M3 (Homo sapiens, UniProt P20309). As to the kind of experiment: Displacement of [3H]-4-DAMP from human muscarinic M3 receptor expressed in BHK-21 cells. In kind it is cell-based.
Target sequence in this assay (P20309 whole entry): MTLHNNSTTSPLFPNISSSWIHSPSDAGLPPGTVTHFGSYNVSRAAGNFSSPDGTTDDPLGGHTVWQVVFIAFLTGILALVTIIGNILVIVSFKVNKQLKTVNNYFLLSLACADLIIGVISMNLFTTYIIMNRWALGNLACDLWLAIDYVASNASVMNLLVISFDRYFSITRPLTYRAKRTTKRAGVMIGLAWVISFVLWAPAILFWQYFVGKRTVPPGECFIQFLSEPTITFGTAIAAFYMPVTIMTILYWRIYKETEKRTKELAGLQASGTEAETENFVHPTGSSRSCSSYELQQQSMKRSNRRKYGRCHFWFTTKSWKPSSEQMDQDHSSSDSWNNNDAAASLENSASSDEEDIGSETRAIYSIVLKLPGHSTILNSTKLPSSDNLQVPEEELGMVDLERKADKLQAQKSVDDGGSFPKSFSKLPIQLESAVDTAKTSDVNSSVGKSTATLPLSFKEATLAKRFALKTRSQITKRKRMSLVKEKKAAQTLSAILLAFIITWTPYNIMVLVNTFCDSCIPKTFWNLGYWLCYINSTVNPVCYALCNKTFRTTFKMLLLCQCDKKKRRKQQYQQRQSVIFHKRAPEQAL
In test [4] the target is T4, Muscarinic acetylcholine receptor M2 (Homo sapiens) (UniProt P08172).
T4 sequence (whole entry): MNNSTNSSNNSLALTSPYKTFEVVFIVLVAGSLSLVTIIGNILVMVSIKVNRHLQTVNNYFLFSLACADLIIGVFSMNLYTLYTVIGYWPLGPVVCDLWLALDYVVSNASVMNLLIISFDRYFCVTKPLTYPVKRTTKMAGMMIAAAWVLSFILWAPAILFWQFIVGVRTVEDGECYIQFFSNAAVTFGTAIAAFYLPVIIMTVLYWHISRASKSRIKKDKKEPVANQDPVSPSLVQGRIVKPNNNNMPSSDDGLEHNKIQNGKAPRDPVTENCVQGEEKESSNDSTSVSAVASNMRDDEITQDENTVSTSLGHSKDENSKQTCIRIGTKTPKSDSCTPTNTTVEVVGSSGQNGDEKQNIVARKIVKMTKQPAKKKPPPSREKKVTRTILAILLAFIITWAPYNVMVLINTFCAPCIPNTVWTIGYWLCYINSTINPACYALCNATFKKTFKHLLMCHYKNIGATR
Nature of the test: Agonist activity at human muscarinic M2 receptor expressed in CHO-K1 cells coexpressing Galpha16 subunit assessed as increase of acetylcholine-induced calcium flux at 10 uM by FLIPR assay relative to acetylcholine. It counts as functional, cell-based.

Test [5] addresses T5, Muscarinic acetylcholine receptor M5 (Homo sapiens) (UniProt P08912).
T5 sequence (whole entry): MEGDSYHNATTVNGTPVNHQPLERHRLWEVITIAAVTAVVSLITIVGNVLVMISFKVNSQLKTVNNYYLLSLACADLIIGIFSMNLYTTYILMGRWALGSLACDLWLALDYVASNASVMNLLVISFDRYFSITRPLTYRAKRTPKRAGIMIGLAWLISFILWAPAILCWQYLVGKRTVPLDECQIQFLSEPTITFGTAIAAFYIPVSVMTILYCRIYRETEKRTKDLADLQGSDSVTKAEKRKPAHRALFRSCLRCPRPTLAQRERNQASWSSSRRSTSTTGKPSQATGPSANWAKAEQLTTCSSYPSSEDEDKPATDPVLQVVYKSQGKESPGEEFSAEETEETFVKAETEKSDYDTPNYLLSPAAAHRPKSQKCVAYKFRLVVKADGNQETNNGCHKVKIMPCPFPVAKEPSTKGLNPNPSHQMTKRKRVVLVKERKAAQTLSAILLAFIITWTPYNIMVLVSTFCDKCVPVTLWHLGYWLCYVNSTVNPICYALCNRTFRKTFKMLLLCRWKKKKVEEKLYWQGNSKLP
As to the kind of experiment: Agonist activity at human muscarinic M5 receptor expressed in BHK-21 cells assessed as increase of acetylcholine-induced calcium flux by FLIPR assay relative to acetylcholine. It counts as functional, cell-based.

Test [6] deals with T3, Muscarinic acetylcholine receptor M3.
Target sequence in this assay (P20309 whole entry): as the sequence (P20309 whole entry) above
For test [7] the target is unchanged. Nature of the test: Agonist activity at human muscarinic M3 receptor expressed in BHK-21 cells assessed as increase of acetylcholine-induced calcium flux at 10 uM by FLIPR assay relative to acetylcholine. In kind it is functional, cell-based.
Target sequence in this assay (P20309 whole entry, looked up): as the sequence (P20309 whole entry) above
Test [8] concerns the target T6, Muscarinic acetylcholine receptor M1 (Homo sapiens, UniProt P11229).
T6 sequence (P11229 whole entry): T1 sequence (whole entry)

The target of test [9] is T7, Muscarinic acetylcholine receptor M4 (Homo sapiens, UniProt P08173).
T7 sequence (P08173 whole entry): T2 sequence (whole entry)
As to the kind of experiment: Agonist activity at human muscarinic M4 receptor expressed in BHK-21 cells coexpressing Galpha16 subunit assessed as increase of acetylcholine-induced calcium flux by FLIPR assay. In kind it is functional, cell-based.

For test [10], the target named is T8, Muscarinic acetylcholine receptor M5 (Homo sapiens, UniProt P08912).
T8 sequence (P08912 whole entry): T5 sequence (whole entry)
Nature of the test: Agonist activity at human muscarinic M5 receptor expressed in BHK-21 cells assessed as increase of acetylcholine-induced calcium flux by FLIPR assay. It counts as functional, cell-based.

`CCCCCCOc1nsnc1C1=CCCN(C)C1` [XANOMELINE]: the Emax in test [1] is 89%; in test [2], 72%; in test [4], 9%; in [5] it was 60%. This molecule displayed a Ki in test [3] of 0.013 µM. Further, the response in [6] was half-maximal at 0.12 µM (EC50).

As to `COc1ccc(CC(=O)NC2CCN(CCCN3C(=O)CCc4cc(F)c(F)cc43)CC2)cc1OC`, the Emax came out at 91% in test [1]; 48% in test [2]; 7% in test [7]; 2% in test [4]; 52% in [5]. The EC50 is 0.013 µM in test [8], 0.3 µM in test [9] and 1.2 µM in test [10].
